Test results from patent publication EP1967193A1, “Enhancement of anticancer therapy by flavonoids” (Vrije Universiteit Medisch Centrum (VUMC), priority 2007, dated 2008).
Where “and” joins values, the source holds several entries; their conditions need not be identical. Equal values may be shown once. Entries after “also recorded” stand apart in the source; their conditions may differ.

Tests used:
[1] = tested on: STS; details: STS patients without prior chemotherapy; DOX alone; cited from earlier work
[2] = tested on: cardiomyocytes; details: cited from earlier work
[3] = tested on: cardiomyocytes; assay: Phase II study: endomyocardial biopsy scored by electron microscopy for DOX-induced cardiotoxicity; format: in vivo, human; details: for Biopsy score cum.dose/Δt/grade: left ventricle; for Cum.dose / biopsy score / LVEF: biopsy score: second biopsy
Description: In this example, we evaluated the cardioprotective properties of monoHER given as a 10 minute i.v infusion at a dose of 1500 mg/m^2 in patients with metastatic cancer treated with DOX. For the early detection of DOX-induced cardiotoxicity endomyocardial biopies were taken, because of its high sensitivity and high specificity (18).
(§1) MonoHER was administered as a 10 min intravenous infusion at a dose of 1500 mg/m^2 60 min before every DOX administration. If cardiotoxicity would be observed in the first three evaluable patients, administration according to this dosing scheme would be changed and the following patients would receive DOX infusion either immediately after monoHER (because in plasma and heart Cmax of monoHER is obtained immediately after the end of infusion (17, 19)) or with an interval of 2 hours (to give monoHER the opportunity to convert into an active metabolite, if any).
(§2) After a cumulative dose of 300 mg/m^2 DOX an endomyocardial biopsy was performed and measurement of the LVEF was repeated. The latter was also done at least 3 weeks after the last dose of DOX and a biopsy was repeated if possible. For logistic reasons, the biopsy of patient #8 was done after a cumulative dose of 375 mg/m^2 DOX.
During a left heart catheterization, a 104 cm, 7 french biopsy forceps was used to obtain tissue from the left ventricle. Three to four specimens 0.5 to 1 mm in diameter were obtained. The specimens were fixed in 4% buffered formaldehyde and prepared for electron microscopy.
After fixation in 4% buffered formaldehyde, the heart tissue was post fixed in 1% osmium tetroxide. The tissue was then dehydrated through a graded series of ethanol solutions of 70-95% and embedded in JB-4 Plus resin. Thereafter, 0.5-3.0 µm thick sections were cut with a glass knife. These semithin sections were processed for electron microscopy. Cardiomyocytes with more than 2 microvacuoles, macrovacuoles and/or loss of myofibrils were counted as deviant. The morphological grade determined from the specimens examined by electron microscopy was scored on a 6-point scale previously described by Billingham and Bristow (20, 21): in grade 0 cells are normal; in grade 1, 1.5, 2 and 2.5 deviant cells are < 5%, 5-15%, 16 - 25 % and 26 - 35%, respectively; in grade 3 cell damage is present in more than 35% of cells.

[4] = Phase II study: monitoring of cardiac function (LVEF, ECG); format: in vivo, human
Description: (§3) Before starting the study patients were evaluated by a full blood count, serum biochemistry including liver function tests, lactate dehydrogenase (LDH) and cholesterol. Risk factors for cardiovascular disease were also evaluated. An LVEF and an ECG were performed before entry into the study.
(§4) Every subsequent administration of monoHER and DOX was preceded by a full blood count, liver enzymes, serum creatinine and a routine 12-lead ECG. A complete blood count was also done 10 days after the chemotherapy.
as §2
Patients went off study in case of progressive disease, a serious cardiac event, or other events that precluded further treatment. Criteria described by Shapiro et al. (22) were used for diagnosis of cardiac events. Episodes of cardiac dysfunction were characterized according to the New York Heart Association functional classification (23).

[5] = tested on: metastatic solid tumors; assay: Phase II study: assessment of tumor response by CT-scan, ECOG criteria; format: in vivo, human; design: key to Response on dox: PD = progressive disease; PR = partial remission; SD = stabile disease; details: for partial remission maintained, time after the start of chemotherapy: maintained up to the present
Description: Patients with metastatic solid tumors were entered when they received a DOX-based chemotherapy regimen with a dosage of DOX ≥ 50 mg/m^2/ cycle and an infusion duration ≤ 1 hour. […] The left ventricular ejection fraction (LVEF) was > 50%. Patients were excluded if they had received prior anthracyclines, had prior or actual cardiovascular disease or had prior radiotherapy to the mediastinum.
as §1
Assessment of tumor response was done every 2-3 cycles by CT-scan, using standard ECOG criteria (24).

[6] = Phase II study: adverse events and laboratory monitoring; format: in vivo, human
Description: as §1, §3, §4

[7] = Detection of metabolites of monoHER
[8] = cited from earlier work
[9] = tested on: doxorubicin-induced chronic cardiotoxicity; details: preclinical, cited from earlier work
[10] = patient 03, cum. dose 480 mg/m^2 DOX
[11] = patient 04, cum. dose 450 mg/m^2 DOX

COc1cccc2c1C(=O)c1c(O)c3c(c(O)c1C2=O)C[C@@](O)(C(=O)CO)C[C@@H]3O[C@H]1C[C@H](N)[C@H](O)[C@H](C)O1 [DOX, doxorubicin]
objective responses on DOX [1]: approximately 25%
patients with anthracycline-induced myocardial damage ([2]; cumulative DOX doses of 240 mg/m^2, data of Billingham et al.): nearly all patients
biopsy score expected after DOX alone ([2]; cumulative dose of 300 mg/m^2 DOX, linear regression analysis of Torti et al., right ventricle): 1.4

C[C@@H]1O[C@@H](OC[C@H]2O[C@@H](Oc3c(-c4ccc(O)c(O)c4)oc4cc(OCCO)cc(O)c4c3=O)[C@H](O)[C@@H](O)[C@@H]2O)[C@H](O)[C@H](O)[C@H]1O [monoHER, 7-monohydroxyethylrutoside]
mean biopsy score according to Billingham ([3]; 5 patients, median cumulative dose 300 mg/m2 DOX, monoHER 1500 mg/m^2 before DOX): 2.7
cardioprotective effect against DOX-induced cardiotoxicity ([3]; five patients with biopsy, monoHER 1500 mg/m^2): no cardioprotective effect; also recorded: did not protect against DOX-induced cardiotoxicity
Biopsy score cum.dose/Δt/grade ([3]; patient 03, cum. dose 300 mg/m^2 DOX, Δt 60 min after monoHER 1500 mg/m^2): 300 / 60 / Grade 3 (in grade 3 cell damage is present in more than 35% of cells)
Cum.dose / biopsy score / LVEF: biopsy score [3, 10]: 3 (in grade 3 cell damage is present in more than 35% of cells)
Cum.dose / biopsy score / LVEF: biopsy score [3, 11]: 2.5 (in grade 1, 1.5, 2 and 2.5 deviant cells are < 5%, 5-15%, 16 - 25 % and 26 - 35%, respectively)
Biopsy score 10 months after last cycle ([3]; patient 04, third biopsy): 2 (in grade 1, 1.5, 2 and 2.5 deviant cells are < 5%, 5-15%, 16 - 25 % and 26 - 35%, respectively)
Biopsy score cum.dose/Δt/grade ([3]; patient 06, cum. dose 300 mg/m^2 DOX, Δt 60 min after monoHER 1500 mg/m^2): 300 / 60 / Grade 2.5 (in grade 1, 1.5, 2 and 2.5 deviant cells are < 5%, 5-15%, 16 - 25 % and 26 - 35%, respectively)
Biopsy score cum.dose/Δt/grade ([3]; patient 07, cum. dose 300 mg/m^2 DOX, Δt 10 min after monoHER 1500 mg/m^2): 300 / 10 / Grade 3 (in grade 3 cell damage is present in more than 35% of cells)
Biopsy score cum.dose/Δt/grade ([3]; patient 08, cum. dose 375 mg/m^2 DOX, Δt 120 min after monoHER 1500 mg/m^2): 375 / 120 / Grade 3 (in grade 3 cell damage is present in more than 35% of cells)
microvacuoles present in % of the cardiomyocytes ([3]; patient #3, after 300 mg/m^2 DOX, monoHER 60 min before DOX): 52%
microvacuoles present in % of the cardiomyocytes ([3]; patient #4, after 300 mg/m^2 DOX, monoHER 60 min before DOX): 20%
cardiomyocytes with > 2 small vacuoles per cardiomyocyte ([3]; patient #6, after 300 mg/m^2 DOX, monoHER 60 min before DOX): 33%
microvacuolization in % of the cardiomyocytes ([3]; patient #7, DOX immediately after monoHER): 60%
microvacuolization in % of the cardiomyocytes ([3]; patient #8, DOX 2 h after monoHER): 49%
patients in whom the LVEF decreased ([4]; after 300-375 mg/m^2 DOX, no LVEF information for patient #6): 4/5
ECG during therapy ([4]; all patients): remained unchanged
cardiac dysfunction ([4]; all patients, during therapy): no cardiac dysfunction occurred
LVEF 10 months after last cycle ([4]; patient 03): ND / 51%
LVEF after ≥ 300 mg/m^2 ([4]; patient 03, LVEF before dox 71%, Δt 60 min): 67%
Cum.dose / biopsy score / LVEF: LVEF [4, 10]: 53%
LVEF 10 months after last cycle ([4]; patient 04): 62%
LVEF after ≥ 300 mg/m^2 ([4]; patient 04, LVEF before dox 72%, Δt 60 min): 60%
Cum.dose / biopsy score / LVEF: LVEF [4, 11]: 66%
LVEF after ≥ 300 mg/m^2 ([4]; patient 07, LVEF before dox 75%, Δt 10 min): 63%
LVEF after ≥ 300 mg/m^2 ([4]; patient 08, LVEF before dox 65%, Δt 120 min, 375 mg/m^2 DOX): 63%
decline of LVEF compared to the ejection fraction before start of the study ([4]; patient #3, after 480 mg/m2 DOX, 71% to 53%): 25%
decline of LVEF ([4]; patient #4, 72% before chemotherapy to 60% after 300 mg/m2 DOX): > 15%
LVEF decrease in comparison to the initial LVEF ([4]; two other patients): 4-6%
LVEF drop in comparison to the initial LVEF ([4]; two patients): 16%
patients with partial remission / objective remission ([5]; 4 patients with metastatic soft tissue sarcoma (STS), DOX preceded by monoHER 1500 mg/m^2): Three and 3 of the four
effect on antitumour activity of DOX ([5]; STS patients): enhances the antitumour activity of DOX
Response on dox ([5]; patient 01, Breast cancer, total DOX 100 mg/m^2, monoHER 1500 mg/m^2 i.v. 60 min before every DOX): PD
Response on dox ([5]; patient 02, Adrenal cortical cancer, total DOX 150 mg/m^2, monoHER 1500 mg/m^2 i.v. 60 min before every DOX): PD
Response on dox ([5]; patient 03, Malignant peripheral nerve sheet tumor, total DOX 480 mg/m^2, monoHER 1500 mg/m^2 i.v. 60 min before every DOX): PR
Response on dox ([5]; patient 04, Malignant fibrous histiocytoma, total DOX 450 mg/m^2, monoHER 1500 mg/m^2 i.v. 60 min before every DOX): PR
Response on dox ([5]; patient 05, Breast cancer, total DOX 100 mg/m^2, monoHER 1500 mg/m^2 i.v. 60 min before every DOX): PD
Response on dox ([5]; patient 06, Breast cancer, total DOX 300 mg/m^2, monoHER 1500 mg/m^2 i.v. 60 min before every DOX): SD
Response on dox ([5]; patient 07, Malignant fibrous histiocytoma, total DOX 300 mg/m^2, DOX immediately after monoHER 1500 mg/m^2 i.v.): PR
Response on dox ([5]; patient 08, Malignant fibrous histiocytoma, total DOX 375 mg/m^2, DOX 2 h after monoHER 1500 mg/m^2 i.v.): SD
duration of partial remission ([5]; patient #3, then progressive disease): nine
partial remission maintained, time after the start of chemotherapy ([5]; patient #4): ≥ 30 months
partial remission maintained, time after the start of chemotherapy ([5]; patient #7): ≥ 16 months
duration of stable disease ([5]; patient #8, continuing DOX up to cumulative dose of 495 mg/m^2): at least 7 months
adverse events during monoHER infusion ([6]; 8 patients, sensation of fullness in stomach (one), itching in skin of neck (one), during each cycle): two patients reported adverse events
leucopenia ([6]; due to chemotherapy, recovered before the start of the next cycle): all patients developed leucopenia
liver enzymes and serum creatinine ([6]; monoHER 1500 mg/m^2 plus DOX): No disturbances
metabolites of monoHER [7]: no metabolites of monoHER have been detected until now
Cmax and AUC ([8]; dose 1500 mg/m^2): comparable to those obtained in mice under protecting conditions
side effects ([8]; up to a dose of 1500 mg/m^2): No serious side effects were observed
influence on the antitumor activity of doxorubicin ([9]; in vitro or in vivo): did not influence the antitumor activity of doxorubicin
cardioprotection against doxorubicin-induced chronic cardiotoxicity ([9]; animals): dose-dependent cardioprotection
